Publication PMC10895676, “Antiviral Activity of Lipophilic Nucleoside Tetraphosphate Compounds” (Journal of Medicinal Chemistry, 2024)
Like-named read-outs stand apart in the source and are kept apart here.

Tests used:
[1] = Hydrolysis in CEM/0 cell extracts; format: in vitro ADME; conditions: human, 37 °C, read-out: CEM/0 cell extracts t1/2 (converted)
Procedure: Next, TetraPPPPro-nucleotides 4–9 were incubated in human CD4^+ T-lymphocyte CEM/0 cell extracts to study their stability and identify the hydrolysis products.
CEM cells were grown in RPMI-1640-based cell culture medium to a final density of ∼3 × 10^6 cells/mL. Cells were centrifuged for 10 min at 1250 rpm at 4 °C and washed twice with cold PBS, and the pellet was resuspended at 10^8 cells/mL and sonicated (Hielscher Ultrasound Techn., 100% amplitude, 3·times for 10 s) to destroy cell integrity. Next, the resulting cell suspension was centrifuged at 10,000 rpm to remove cell debris. Finally, the supernatant was divided into aliquots and frozen at −80 °C.
(§1) 6.0 mM hydrolysis solutions of compounds 4–9 were prepared from 21 μL of 50 mM DMSO stock solutions and 154 μL of DMSO. Two different samples, including 10 μL of water and 10 μL of 6.0 mM hydrolysis solution, were prepared in 2 mL Eppendorf vials. Next, 50 μL of human CEM cell extracts or 50 μL of human citrate plasma were added to the mixture, the reaction was started, and the mixture was incubated at 37 °C for different time periods. The reactions were stopped by the addition of 150 μL of MeOH. The resulting suspension was kept on ice for 5 min, followed by defrosting and centrifugation at 14,000 rpm (Heraeus, Biofuge Pico) for 22 min. The supernatants (80 or 60 μL) were directly injected into HPLC. The calculation of t1/2 was performed analogously to that for the chemical hydrolysis studies.

[2] = test system: HIV-2 (ROD); assay: Anti-HIV replication assay, HIV-2 (ROD) in wild-type CEM/0 cells; format: cell-based; conditions: for selectivity index (SI): CC50/EC50, HIV-2 (ROD) in CEM cells; for EC50: Human immunodeficiency virus 2, CCRF-CEM, wild-type CEM/0 cells, mean ± SD, n = 2–3, read-out: HIV-2 (ROD) EC50
Procedure: (§2) Inhibition of HIV-1(HE)- and HIV-2(ROD)-induced cytopathogenicity in wild-type CEM/0 CEM CD4^+ T-cells and thymidine kinase-deficient CEM/TK^– cell cultures was measured in microtiter 96-well plates containing ∼3 × 10^5 CEM cells/mL infected with 100 CCID50 of HIV per milliliter and containing appropriate dilutions of the test compounds. After 4–5 days of incubation at 37 °C in a CO2-controlled humidified atmosphere, virus-induced cellular effects and syncytia cell formation were examined microscopically.

[3] = Cytotoxicity, inhibition of CEM/TK– cell proliferation; format: cell-based; conditions: human, CEM/TK– cells (CD4+ T-cells), read-out: toxicity CC50
[4] = Cytotoxicity, inhibition of CEM cell proliferation; format: cell-based; conditions: human, CEM cells (CD4+ T-cells), read-out: toxicity CC50
[5] = Hydrolysis in citrate-stabilized human plasma; format: in vitro ADME; conditions: 37 °C, read-out: t1/2 in citrate-stabilized human plasma (converted)
Procedure: Finally, the supernatant was divided into aliquots and frozen at −80 °C.
as §1, with “Two” for “6.0 mM hydrolysis solutions of compounds 4–9 were prepared from 21 μL of 50 mM DMSO stock solutions and 154 μL of DMSO. Two”

[6] = test system: HIV-2 (ROD); assay: Anti-HIV replication assay, HIV-2 (ROD) in thymidine kinase-deficient CEM/TK– cells; format: cell-based; conditions: for selectivity index (SI): CC50/EC50, HIV-2 (ROD) in CEM/TK– cells; for EC50: Human immunodeficiency virus 2, CEM/TK– cells, mean ± SD, n = 2–3, read-out: CEM/TK– HIV-2 (ROD) EC50
Procedure: as §2

[7] = test system: pig liver esterase (PLE); assay: Enzymatic hydrolysis with pig liver esterase (PLE); format: in vitro ADME; conditions: pig liver esterase in phosphate buffer, PLE in phosphate buffer pH 7.3, 37 °C, read-out: PLE t1/2 (converted)
Procedure: To confirm the enzymatic hydrolysis process, TetraPPPPro-nucleotides 4–9 bearing different kinds of lipophilic groups attached to the δ-phosph(on)ate group were incubated with PLE in phosphate buffer.
Then, 833 μL of 50 mM phosphate buffer (pH 7.3) and 125 μL of DMSO were added to the 6.0 mM hydrolysis solutions. The reaction was started by addition of 62.5 μL of PLE in phosphate buffer (100 units/mL), and the mixture was incubated at 800 rpm at 37 °C in a thermomixer. (1). At different times, aliquots (75 μL) were taken and stopped by the addition of […] of MeOH. The mixture was stored in liquid nitrogen. When testing, samples were warmed up to room temperature, and 60 μL of the liquid was directly injected into HPLC analysis. (2). 40 μL for each extraction was stored in liquid nitrogen. When testing, samples were warmed up to room temperature, and 30 μL of the liquid was taken and injected into the analytical RP-18-HPLC instrument. The calculation of t1/2 was performed analogously to that for the chemical hydrolysis studies.

[8] = test system: HIV-1 (HE); assay: Anti-HIV replication assay, HIV-1 (HE) in wild-type CEM/0 cells; format: cell-based; conditions: Human immunodeficiency virus 1, CCRF-CEM; wild-type CEM/0 cells; mean ± SD, n = 2–3; read-out: HIV-1 (HE) EC50
Procedure: as §2, with “microscopically. The EC50 (50% effective concentration) was defined as the compound concentration required to inhibit HIV-induced giant cell formation by 50%.” for “microscopically.”

[9] = Chemical hydrolysis in aqueous buffers (PBS pH 7.3 / 8.0, citrate buffer pH 2.0), RP18-HPLC; format: physicochemical; conditions: for half-life at 1.9 mM: phosphate buffered saline
Procedure: All metabolite mixtures were analyzed and quantified by means of analytical RP18-HPLC (UV detection).
The solution was incubated at 37 °C in a thermomixer. […] for each extraction and stored at −30 °C. When testing, samples were warmed up to room temperature, and 25 or 20 μL of the liquid was taken and injected into the analytical RP-18-HPLC instrument. Further aliquots were taken for monitoring the kinetic hydrolysis.
5.88 g of citric acid and 3.58 g of NaCl were dissolved in 82 mL of hydrochloric acid (0.1 mol/L). Then, sodium hydroxide was added to adjust the pH to 2.0.

[10] = test system: CD4+ T-cell (CEM); conditions: CEM cell proliferation; read-out: toxicity CC50; cited from earlier work
[11] = PBS; cited from earlier work
[12] = test system: HIV-1 (HE); conditions: CEM/0 cells; cited from earlier work
[13] = test system: pig liver esterase (PLE); set-up: method as in PMID 26503889; conditions: cited from earlier work
[14] = 25 mM PBS, pH 7.3, 37 °C, read-out: PBS pH 7.3 t1/2 (converted)
[15] = PBS, pH 8.0, 37 °C, read-out: PBS pH 8.0 t1/2 (converted)

half-life at 0.86 mM [1]	EC50 [2]	half-life at 0.86 mM [5]	EC50 [6]	half-life at 0.45 mM [7]	EC50 [8]	half-life at 1.9 mM [9, 14]	half-life ([9]; 25 mM citrate buffer, pH 2.0, 37 °C)	half-life at 1.9 mM [9, 15]	SMILES	selectivity index (SI) [2]	CC50 [3]	CC50 [4]	selectivity index (SI) [6]	CC50 [10]	PBS pH 7.3 t1/2 [11]	EC50 [12]	PLE t1/2 [13]
1.37 h	0.26 ± 0.14 µM	2.8 h	4.44 ± 1.54 µM	0.07 h	0.39 ± 0.16 µM	26 h	–	–	CCCCCCCCCC(=O)Oc1ccc(COP(=O)(OCc2ccc(OC(=O)CCCCCCCCC)cc2)OP(=O)(O)OP(=O)(O)OP(=O)(O)OC[C@@H]2C=C[C@H](n3cc(C)c(=O)[nH]c3=O)O2)cc1 [compound 8, δ-(AB-C9; AB-C9)-d4T4P]	173	50 µM	45 µM	11	–	–	–	–
6.67 h	0.063 ± 0.032 µM	2.1 h	0.059 ± 0.054 µM	1.06 h	0.083 ± 0.018 µM	77 h	27 h	99 h	CCCCCCCCCCCCCCCCCCOP(=O)(OCc1ccc(OC(=O)CCCC)cc1)OP(=O)(O)OP(=O)(O)OP(=O)(O)OC[C@@H]1C=C[C@H](n2cc(C)c(=O)[nH]c2=O)O1 (stereo partly shown) [compound 6, δ-(AB-C4; alkyl-C18)-d4T4P]	643	48 µM	40.5 µM	813	–	–	–	–
–	0.066 ± 0.026 µM	–	0.29 ± 0.19 µM	–	0.042 ± 0.02 µM	–	–	68 h	CCCCCCCCCC(=O)Oc1ccc(COP(=O)(OCc2ccc(OC(=O)CCCCCCCCC)cc2)OP(=O)(O)OP(=O)(O)OC[C@@H]2C=C[C@H](n3cc(C)c(=O)[nH]c3=O)O2)cc1 [1a, γ-(AB-C9; AB-C9)-d4TTP, reference compound]	1109	50 µM	73.2 µM	172	–	44[43] h	–	0.082[43] h

The next lines start with the compound.

SMILES	half-life at 0.86 mM [1]	EC50 [2]	half-life at 0.86 mM [5]	EC50 [6]	half-life at 0.45 mM [7]	EC50 [8]	half-life at 1.9 mM [9, 14]	half-life ([9]; 25 mM citrate buffer, pH 2.0, 37 °C)	half-life at 1.9 mM [9, 15]	selectivity index (SI) [2]	CC50 [3]	CC50 [4]	selectivity index (SI) [6]	CC50 [10]	PBS pH 7.3 t1/2 [11]	EC50 [12]	PLE t1/2 [13]
CCCCCCCCCCCCCCCCCCP(=O)(OCc1ccc(OC(=O)CCCC)cc1)OP(=O)(O)OP(=O)(O)OC[C@@H]1C=C[C@H](n2cc(C)c(=O)[nH]c2=O)O1 (stereo partly shown) [2b, γ-(AB-C4)-γ-C-(C18)-d4TTP]	–	–	–	–	–	–	–	–	–	–	–	–	–	19 µM	646 h	0.0074 ± 0.0014 µM	–
CCCCCCCCCCCCCCCCCCP(=O)(OCCCC)OP(=O)(O)OP(=O)(O)OC[C@@H]1C=C[C@H](n2cc(C)c(=O)[nH]c2=O)O1 (stereo partly shown) [3b, γ-(alkyl-C4)-γ-C-(alkyl-C18)-d4TTP]	–	–	–	–	–	–	–	–	–	–	–	–	–	33 µM	> 1700 h	–	–
CCCCCCCCCCCCCCCCCCOP(=O)(OCCCC)OP(=O)(O)OP(=O)(O)OC[C@@H]1C=C[C@H](n2cc(C)c(=O)[nH]c2=O)O1 (stereo partly shown) [3a, γ-(alkyl-C4; alkyl-C18)-d4TTP]	–	–	–	–	–	–	–	–	–	–	–	–	–	30 µM	–	–	–
